# Experimental data reported in ChEMBL document CHEMBL3886724, “Oxazolidinone compounds and derivatives thereof” (2016).
# Target: T1, Poly [ADP-ribose] polymerase tankyrase-1 (Homo sapiens, UniProt O95271)
# T1 sequence (O95271 whole entry): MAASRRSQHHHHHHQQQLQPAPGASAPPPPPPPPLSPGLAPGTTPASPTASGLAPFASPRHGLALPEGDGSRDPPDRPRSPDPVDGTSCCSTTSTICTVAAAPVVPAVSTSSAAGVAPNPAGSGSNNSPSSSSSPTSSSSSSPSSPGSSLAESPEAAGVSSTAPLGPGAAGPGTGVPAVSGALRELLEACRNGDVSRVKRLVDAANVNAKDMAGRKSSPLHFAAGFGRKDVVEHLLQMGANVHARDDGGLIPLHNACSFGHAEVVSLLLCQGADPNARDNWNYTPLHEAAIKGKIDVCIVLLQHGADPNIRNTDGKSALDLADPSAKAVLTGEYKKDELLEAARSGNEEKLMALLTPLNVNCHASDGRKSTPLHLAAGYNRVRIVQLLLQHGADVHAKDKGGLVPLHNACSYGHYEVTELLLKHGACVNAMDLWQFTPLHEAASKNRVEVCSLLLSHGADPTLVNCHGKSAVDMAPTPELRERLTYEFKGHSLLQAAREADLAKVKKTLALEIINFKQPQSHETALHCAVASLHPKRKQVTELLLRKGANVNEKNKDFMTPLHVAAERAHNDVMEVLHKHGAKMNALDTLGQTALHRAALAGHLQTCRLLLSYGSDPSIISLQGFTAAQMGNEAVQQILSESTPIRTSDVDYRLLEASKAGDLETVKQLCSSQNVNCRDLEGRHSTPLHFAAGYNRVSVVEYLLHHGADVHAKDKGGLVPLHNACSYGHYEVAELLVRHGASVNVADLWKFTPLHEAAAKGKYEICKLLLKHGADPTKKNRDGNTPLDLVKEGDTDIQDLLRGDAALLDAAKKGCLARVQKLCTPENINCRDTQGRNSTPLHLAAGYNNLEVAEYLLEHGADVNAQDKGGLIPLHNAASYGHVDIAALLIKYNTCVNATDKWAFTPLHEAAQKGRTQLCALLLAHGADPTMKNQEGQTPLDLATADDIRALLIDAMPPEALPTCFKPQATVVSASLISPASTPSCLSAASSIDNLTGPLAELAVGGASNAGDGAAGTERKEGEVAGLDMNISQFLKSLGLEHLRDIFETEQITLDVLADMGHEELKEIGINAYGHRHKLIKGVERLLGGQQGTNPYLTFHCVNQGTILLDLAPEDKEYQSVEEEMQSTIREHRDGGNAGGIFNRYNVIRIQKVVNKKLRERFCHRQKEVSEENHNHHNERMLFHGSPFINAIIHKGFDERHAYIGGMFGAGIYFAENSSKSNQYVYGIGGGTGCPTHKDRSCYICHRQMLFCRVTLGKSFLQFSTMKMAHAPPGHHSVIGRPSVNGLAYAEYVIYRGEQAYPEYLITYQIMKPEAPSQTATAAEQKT
# Assay: Tankyrase Biochemical Assays: The tankyrase 1 biochemical activity of the compounds was assayed in the following assay buffer (50 mM MOPS pH7.5, 100 mM NaCl, […] MgCl2, 0.01% Tween-20, 0.05% BSA, and 1 mM DTT) as follows: […] of 6×HIS-tankyrase 1 (1091-1325) was incubated in the presence of compound (DMSO […] final) in a Perkin Elmer 384 well Proxiplate Plus™ (cat. no. 6008289) with 400 n
row,Structure (SMILES),IC50 [nM]
1,CC1(C)OC(=O)N([C@H]2CC[C@H](NC(=O)c3csc(-c4ccccc4)n3)CC2)[C@H]1c1ccccc1,5.18
2,CC1(C)OC(=O)N([C@H]2CC[C@H](NC(=O)c3ccnc(-c4ccccc4)n3)CC2)[C@H]1c1ccccc1,11.4
3,CC1(C)OC(=O)N(c2ccc(-c3cc(-c4ncco4)c[nH]c3=O)cc2)[C@H]1c1ccccc1,167
